Here are results for 17 compounds from patent US11655216B2 (priority 2016, dated 2023).

SMILES strings stand for the structures. Where two headings read alike, the source gives them in different places.

Assay [1] deals with T1, glutathione-S-transferase (GST) tagged LXRalpha LBD (ligand binding domain) (Homo sapiens, UniProt Q13133).
T1 construct: purchased Invitrogen pv4655
T1 sequence (Q13133 209-447 limits assumed): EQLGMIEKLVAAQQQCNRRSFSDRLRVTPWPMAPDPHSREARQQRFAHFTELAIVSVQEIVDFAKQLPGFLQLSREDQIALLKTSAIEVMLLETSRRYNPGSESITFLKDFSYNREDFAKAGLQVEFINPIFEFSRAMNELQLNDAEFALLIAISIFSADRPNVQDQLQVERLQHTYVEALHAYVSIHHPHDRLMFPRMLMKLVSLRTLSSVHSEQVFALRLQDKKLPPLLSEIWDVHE
In words: biochemical. The gist of the method: (§1)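 Coactivator recruitment format: receptor LBD exposed to compounds, detection via Tb-antibody/fluorescein-peptide pair, room-temperature incubation, TR-FRET signal on a filter instrument.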

In assay [2] the target is T2, glutathione-S-transferase (GST) tagged LXRbeta LBD (ligand binding domain) (Homo sapiens, UniProt P55055).
T2 construct: purchased Invitrogen pv4658
T2 sequence (P55055 222-460 limits assumed): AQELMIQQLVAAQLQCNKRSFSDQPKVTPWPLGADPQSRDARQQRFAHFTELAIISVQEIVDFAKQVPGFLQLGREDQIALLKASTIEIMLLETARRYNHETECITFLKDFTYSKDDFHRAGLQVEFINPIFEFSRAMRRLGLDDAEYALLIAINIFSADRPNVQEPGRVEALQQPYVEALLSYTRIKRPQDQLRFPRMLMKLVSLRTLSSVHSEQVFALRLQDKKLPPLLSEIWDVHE
In words: LanthaScreen TR-FRET Liver X Receptor Coactivator Assay, LXR beta. In kind it is biochemical. Particulars: for EC50: LXR beta IP, potency (Inflection Point), compound-induced co-activator recruitment, TR-FRET; for Emax: read-out: LXR beta actiivty at max dose, efficacy (% Emax) in relation to reference dual agonist T0901317. The gist of the method:
as §1

The mark [3] stands for this setting: efficacy (% Emax) in relation to reference dual agonist T0901317, read-out: LXR alpha actiivty at max dose.
Where [4] appears, read: potency (Inflection Point), compound-induced co-activator recruitment, TR-FRET, read-out: LXR alpha IP.
Setting [5] is: potency (Inflection Point), compound-induced co-activator recruitment, TR-FRET.
The mark [6] stands for this setting: read-out: LXR alpha actiivty at max dose, efficacy (% Emax) in relation to reference dual agonist T0901317.
The mark [7] stands for this setting: LXR alpha IP, potency (Inflection Point), compound-induced co-activator recruitment, TR-FRET.

For `C[C@H](CCCC1CCN(C(=O)[C@](O)(c2ccccc2)C(F)(F)F)CC1)Oc1ccc(C(=O)N(C)C)c(Cl)c1` (single isomer, unassigned) [Example 25-1, 2-chloro-N,N-dimethyl-4-((R or S)-5-(1-((R or S)-3,3,3-trifluoro-2-hydroxy-2-phenylpropanoyl)piperidin-4-yl)pentan-2-yloxy)benzamide], the Emax in assay [1] (setting [3]) came out at 29%; in assay [2], 91%. Further, the results for the EC50 in assay [1] (setting [4]) and in assay [2] were 1160 nM and 101 nM, respectively.
As to `COc1cccc(C(O)(C(=O)N2CCC(C(C)CC(C)COc3ccc(C(=O)N(C)C)c(Cl)c3)CC2)C(F)(F)F)c1` (single isomer, unassigned) [Example 31-2, 2-chloro-N,N-dimethyl-4-(2-methyl-4-(1-((R or S)-3,3,3-trifluoro-2-hydroxy-2-(3-methoxyphenyl)propanoyl)piperidin-4-yl)pentyloxy)benzamide], in assay [1] (setting [5]), the “LXR alpha IP” value is recorded as “No IP”. Also, in assay [1] (setting [6]), the Emax is 3%. Further, in assay [2], the EC50 came out at 19 nM and the Emax was found to be 38%.
As for `CN(C)C(=O)c1ccc(OCC[C@@H]2CC23CCN(C(=O)C2(c4ccccc4Br)CCC2)CC3)cc1Cl` (single isomer, unassigned) [Example 12-17, (S or R)-4-(2-(6-(1-(2-bromophenyl)cyclobutanecarbonyl)-6-azaspiro[2.5]octan-1-yl)ethoxy)-2-chloro-N,N-dimethylbenzamide], the EC50 amounted to 166 nM in assay [1] (setting [7]) and 9 nM in assay [2]. Further, the Emax in assay [1] (setting [6]) was 35%; in assay [2], 79%.
On to `CN(C)C(=O)c1ccc(OCC(F)CCC2CCN(C(=O)C(O)(c3ccccc3)C(F)(F)F)CC2)cc1Cl` (single isomer, unassigned) [Example 20-1, 2-chloro-4-(2-fluoro-4-(1-((R or S)-3,3,3-trifluoro-2-hydroxy-2-phenylpropanoyl)piperidin-4-yl)butoxy)-N,N-dimethylbenzamide], for which the Emax amounted to 26% in assay [1] (setting [3]) and 72% in assay [2]. For the same compound, the EC50 in assay [1] (setting [4]) amounted to 1430 nM; in assay [2], 80 nM.
Take `CN(C)C(=O)c1ccc(O[C@H]2C[C@@H](CC3CCN(C(=O)[C@](O)(c4cccc(OC(F)F)c4)C(F)(F)F)CC3)C2)cc1Cl` (single isomer, unassigned) [Example 37-9, 2-chloro-4-((1R,3s)-3-((1-((R or S)-2-(3-(difluoromethoxy)phenyl)-3,3,3-trifluoro-2-hydroxypropanoyl)piperidin-4-yl)methyl)cyclobutoxy)-N,N-dimethylbenzamide]: the EC50 in assay [1] (setting [7]) turned out to be 1020 nM; in assay [2], 16 nM. Also, the Emax in assay [1] (setting [6]) worked out at 25%; in assay [2], 111%.
Taken in the same sequence, the figures for `CN(C)C(=O)c1ccc(O[C@H]2C[C@@H](CC3CCN(C(=O)[C@](O)(c4cccc(C(F)(F)F)c4)C(F)(F)F)CC3)C2)cc1Cl` (single isomer, unassigned) [Example 37-6, 2-chloro-N,N-dimethyl-4-((1R,3s)-3-((1-((R or S)-3,3,3-trifluoro-2-hydroxy-2-(3-(trifluoromethyl)phenyl)propanoyl)piperidin-4-yl)methyl)cyclobutoxy) benzamide] were 602 nM, 15 nM, 31% and 119%.
Turning to `CN(C)C(=O)c1ccc(OCCC2CC23CCN(C(=O)Cc2cccc(Br)c2)CC3)cc1Cl` (single isomer, unassigned) [Example 12-3, (R or S)-4-(2-(6-(2-(3-bromophenyl)acetyl)-6-azaspiro[2.5]octan-1-yl)ethoxy)-2-chloro-N,N-dimethylbenzamide], the “LXR alpha IP” value in assay [1] (setting [5]) is given as “No IP”. The Emax in assay [1] (setting [6]) worked out at 1%. Moreover, in assay [2], the EC50 worked out at 153 nM and the Emax worked out at 28%.
For `CCc1cccc([C@@](O)(C(=O)N2CCC(C[C@H]3C[C@@H](Oc4ccc(C(=O)N(C)C)c(Cl)c4)C3)CC2)C(F)(F)F)c1` (single isomer, unassigned) [Example 37-4, 2-chloro-4-((1R,3s)-3-((1-((R or S)-2-(3-ethylphenyl)-3,3,3-trifluoro-2-hydroxypropanoyl)piperidin-4-yl)methyl)cyclobutoxy)-N,N-dimethylbenzamide] the same measures were “No IP”, 13%, 16 nM and 120%.
For `O=C(c1cscn1)N1CCC(CCCCOc2ccc(C(=O)N3CCCC3)c(Cl)c2)CC1` [Example 8-20, (2-chloro-4-(4-(1-(thiazole-4-carbonyl)piperidin-4-yl)butoxy)phenyl) (pyrrolidin-1-yl)methanone] the same measures were “No IP”, 4%, 4410 nM and 25%.
Regarding `CN(C)C(=O)c1ccc(O[C@H]2C[C@@H](CC3CCN(C(=O)[C@](O)(c4ccccc4)C(F)(F)F)CC3)C2)cc1Cl` (single isomer, unassigned) [Example 37-1, 2-chloro-N,N-dimethyl-4-((1R,3s)-3-((1-((R or S)-3,3,3-trifluoro-2-hydroxy-2-phenylpropanoyl)piperidin-4-yl)methyl)cyclobutoxy)benzamide], the EC50 in assay [1] (LXR alpha IP) turned out to be 381 nM; in assay [2], 10 nM. For the same compound, the results for the Emax in assay [1] (read-out: LXR alpha actiivty at max dose) and in assay [2] were 42% and 131%, respectively.
In the case of `CC(C)(C)OC(=O)NC1CN(C(=O)c2ccc(OCCCCC3CCN(C(=O)[C@](O)(c4ccccc4)C(F)(F)F)CC3)cc2Cl)C1` (single isomer, unassigned) [Example 8-11, (R or S)-tert-butyl 1-(2-chloro-4-(4-(1-(3,3,3-trifluoro-2-hydroxy-2-phenylpropanoyl)piperidin-4-yl)butoxy)benzoyl) azetidin-3-ylcarbamate], the EC50 in assay [1] (setting [7]) amounted to 520 nM; in assay [2] it was 18 nM. In addition, the Emax was found to be 32% in assay [1] (setting [6]) and 56% in assay [2].
On to `CN(C)C(=O)c1ccc(OCCCCC2(C)CCN(C(=O)C3(c4ccccc4)CCCC3)CC2)cc1Cl` [Example 9-1, 2-chloro-N,N-dimethyl-4-(4-(4-methyl-1-(1-phenylcyclopentanecarbonyl)piperidin-4-yl)butoxy)benzamide], for which the EC50 in assay [1] (setting [7]) came to 411 nM; in assay [2], 51 nM. Also, the Emax came out at 13% in assay [1] (setting [6]) and 88% in assay [2].
On to `CN(C)C(=O)c1ccc(O[C@H]2C[C@@H](CC3CCN(C(=O)[C@](O)(c4cc(F)cc(Cl)c4)C(F)(F)F)CC3)C2)cc1Cl` (single isomer, unassigned) [Example 37-10, 2-chloro-4-((1R,3s)-3-((1-((R or S)-2-(3-chloro-5-fluorophenyl)-3,3,3-trifluoro-2-hydroxypropanoyl)piperidin-4-yl)methyl)cyclobutoxy)-N,N-dimethylbenzamide], for which the EC50 in assay [1] (setting [7]) came to 318 nM; in assay [2] it was 5 nM. Also, the results for the Emax in assay [1] (setting [6]) and in assay [2] were 46% and 140%, respectively.
Regarding `CN(C)C(=O)c1ccc(OCCCCC2CCN(C(=O)C(O)(c3ccccc3)C(F)(F)F)CC2)nc1C#N` (centres unmarked) [Example 4-1, 2-cyano-N,N-dimethyl-6-(4-(1-(3,3,3-trifluoro-2-hydroxy-2-phenylpropanoyl)piperidin-4-yl)butoxy)nicotinamide], the EC50 in assay [1] (setting [7]) stood at 419 nM; in assay [2], 30 nM. Also, the Emax in assay [1] (setting [6]) was 37%; in assay [2], 77%.
Consider `CCc1cccc(C(O)(C(=O)N2CCC(CCCCOc3ccc(C(=O)N(C)C)c(Cl)c3)CC2)C(F)(F)F)c1` (single isomer, unassigned) [Example 3-12, (R or S)-2-chloro-4-(4-(1-(2-(3-ethylphenyl)-3,3,3-trifluoro-2-hydroxypropanoyl)piperidin-4-yl)butoxy)-N,N-dimethylbenzamide], for which, in assay [1] (setting [5]), the “LXR alpha IP” value was “No IP”. Besides, the Emax in assay [1] (setting [6]) amounted to 15%. Also, in assay [2], the EC50 came to 16 nM and the Emax came out at 76%.
Turning to `CN(C)C(=O)c1ccc(OCCCCC2CCN(S(=O)(=O)c3ccccc3C(F)(F)F)CC2)nc1Cl` [Example 7-1, 2-chloro-N,N-dimethyl-6-(4-(1-(2-(trifluoromethyl)phenylsulfonyl)piperidin-4-yl)butoxy)nicotinamide], the EC50 came to 776 nM in assay [1] (setting [7]) and 36 nM in assay [2]. The Emax was 82% in assay [1] (setting [6]) and 138% in assay [2].
On to `CN(C)C(=O)c1ccc(OCCC2CC23CCN(C(=O)C(C)(C)c2ccccc2)CC3)nc1Cl` (centres unmarked) [Example 15-3, 2-chloro-N,N-dimethyl-6-(2-(6-(2-methyl-2-phenylpropanoyl)-6-azaspiro[2.5]octan-1-yl)ethoxy)nicotinamide], for which the figures for the EC50 in assay [1] (setting [7]) and in assay [2] were 202 nM and 5 nM, respectively. For the same compound, the results for the Emax in assay [1] (setting [6]) and in assay [2] were 67% and 102%, respectively.
